Values after ≈ are worked out from the molar mass of the structure shown.
Legend:
Staphylococcus aureus = experiment: Antibacterial activity against Staphylococcus aureus ATCC 11632 assessed as reduction in bacterial growth; type: functional
[1] = tested on: Staphylococcus epidermidis; experiment: Antibacterial activity against Staphylococcus epidermidis ATCC 12228 assessed as reduction in bacterial growth; type: functional
Escherichia coli = experiment: Antibacterial activity against Escherichia coli ATCC 25922 assessed as reduction in bacterial growth; type: functional
Pseudomonas aeruginosa = experiment: Antibacterial activity against Pseudomonas aeruginosa ATCC […] assessed as reduction in bacterial growth; type: functional
Klebsiella pneumoniae = experiment: Antibacterial activity against Klebsiella pneumoniae ATCC 4352 assessed as reduction in bacterial growth; type: functional
Salmonella typhimurium = experiment: Antibacterial activity against Salmonella typhimurium ATCC 14028 assessed as reduction in bacterial growth; type: functional, Salmonella enterica subsp. enterica serovar Typhimurium; conditions: Salmonella enterica
Aspergillus niger = experiment: Antifungal activity against Aspergillus niger ATCC 439; type: functional
Candida albicans = experiment: Antifungal activity against Candida albicans ATCC 7754; type: functional
Saccharomyces cerevisiae = experiment: Antifungal activity against Saccharomyces cerevisiae SH 20; type: functional
Bacillus subtilis = experiment: Antibacterial activity against Bacillus subtilis ATCC 11774 assessed as reduction in bacterial growth; type: functional
Aspergillus flavus = experiment: Antifungal activity against Aspergillus flavus ATCC 204304; type: functional
PC-3 = experiment: Cytotoxicity against human PC-3 cells incubated for 3 days by MTT assay; type: functional, cell-based; conditions: PC-3, 72 h
MDA-MB-231 = experiment: Cytotoxicity against human MDA-MB-231 cells incubated for 3 days by MTT assay; type: functional, cell-based; conditions: MDA-MB-231, 72 h
[2] = tested on: Mycobacterium tuberculosis; experiment: Antimycobacterial activity against Mycobacterium tuberculosis H37Ra ATCC 25177 assessed as growth inhibition incubated for 7 days measured after 48 hrs treatment with resazurin by alamarblue assay; type: functional; conditions: H37Ra ATCC 25177, 216 h, time 9 day
[3] = tested on: Mycobacterium tuberculosis; experiment: Antimycobacterial activity against Mycobacterium tuberculosis H37Ra ATCC 25177 assessed as bacterial killing incubated for 4 weeks by CLSI standard plate count method; type: functional; conditions: H37Ra ATCC 25177, 672 h
Rhodesain = Rhodesain (Trypanosoma brucei rhodesiense, UniProt Q95PM0); experiment: Inhibition of Trypanosoma brucei rhodesiense rhodesain using fluorogenic substrate Z-Phe-Arg-aminomethylcoumarin as substrate by fluorescence assay
Rhodesain, sequence (Q95PM0 whole entry): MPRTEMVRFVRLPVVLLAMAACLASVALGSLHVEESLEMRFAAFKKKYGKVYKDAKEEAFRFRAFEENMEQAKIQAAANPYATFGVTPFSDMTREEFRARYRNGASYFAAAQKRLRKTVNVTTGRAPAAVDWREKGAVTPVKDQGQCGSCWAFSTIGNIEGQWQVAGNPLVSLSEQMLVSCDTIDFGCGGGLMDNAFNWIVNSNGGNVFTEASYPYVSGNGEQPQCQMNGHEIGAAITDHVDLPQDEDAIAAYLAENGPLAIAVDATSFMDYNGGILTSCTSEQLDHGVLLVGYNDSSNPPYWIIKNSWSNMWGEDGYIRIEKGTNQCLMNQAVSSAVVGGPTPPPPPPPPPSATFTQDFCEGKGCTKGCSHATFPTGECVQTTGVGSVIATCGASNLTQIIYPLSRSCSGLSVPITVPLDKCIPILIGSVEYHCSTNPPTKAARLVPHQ

Compound: CC(=O)OC[C@H]1O[C@@H](NC(=S)N/N=C(\C)c2cc3cc(C)ccc3oc2=O)[C@H](OC(C)=O)[C@@H](OC(C)=O)[C@@H]1OC(C)=O
- MIC (Staphylococcus aureus): 12.5 µM (≈ 7.57 µg/mL)
- MIC [1]: 50 µM (≈ 30.3 µg/mL)
- MIC (Escherichia coli): 50 µM (≈ 30.3 µg/mL)
- MIC (Pseudomonas aeruginosa): 12.5 µM (≈ 7.57 µg/mL)
- MIC (Klebsiella pneumoniae): 100 µM (≈ 60.6 µg/mL)
- MIC (Salmonella typhimurium): 25 µM (≈ 15.1 µg/mL)
- MIC (Aspergillus niger): 1.56 µM (≈ 0.945 µg/mL)
- MIC (Candida albicans): 3.12 µM (≈ 1.89 µg/mL)
- MIC (Saccharomyces cerevisiae): 25 µM (≈ 15.1 µg/mL)

Compound: COc1cccc2cc(/C(C)=N/NC(=S)N[C@@H]3O[C@H](COC(C)=O)[C@@H](OC(C)=O)[C@H](OC(C)=O)[C@H]3OC(C)=O)c(=O)oc12
- MIC (Staphylococcus aureus): 50 µM (≈ 31.1 µg/mL)
- MIC (Bacillus subtilis): 50 µM (≈ 31.1 µg/mL)
- MIC [1]: 3.12 µM (≈ 1.94 µg/mL)
- MIC (Escherichia coli): 1.56 µM (≈ 0.97 µg/mL)
- MIC (Klebsiella pneumoniae): 1.56 µM (≈ 0.97 µg/mL)
- MIC (Aspergillus niger): 6.25 µM (≈ 3.89 µg/mL)
- MIC (Aspergillus flavus): 6.25 µM (≈ 3.89 µg/mL)
- MIC (Candida albicans): 25 µM (≈ 15.5 µg/mL)
- MIC (Saccharomyces cerevisiae): 50 µM (≈ 31.1 µg/mL)

Compound: CC(=O)OC[C@H]1O[C@@H](NC(=S)N/N=C(\C)c2c(C)c3ccc(O)cc3oc2=O)[C@H](OC(C)=O)[C@@H](OC(C)=O)[C@@H]1OC(C)=O
- MIC (Staphylococcus aureus): 0.78 µM (≈ 0.485 µg/mL)
- MIC (Bacillus subtilis): 100 µM (≈ 62.2 µg/mL)
- MIC [1]: 1.56 µM (≈ 0.97 µg/mL)
- MIC (Escherichia coli): 100 µM (≈ 62.2 µg/mL)
- MIC (Pseudomonas aeruginosa): 12.5 µM (≈ 7.77 µg/mL)
- MIC (Klebsiella pneumoniae): 100 µM (≈ 62.2 µg/mL)
- MIC (Salmonella typhimurium): 3.12 µM (≈ 1.94 µg/mL)
- MIC (Aspergillus niger): 3.12 µM (≈ 1.94 µg/mL)
- MIC (Aspergillus flavus): 1.56 µM (≈ 0.97 µg/mL)
- MIC (Candida albicans): > 100 µM
- MIC (Saccharomyces cerevisiae): 0.78 µM (≈ 0.485 µg/mL)

Compound: CC(=O)OC[C@H]1O[C@@H](NC(=S)N/N=C(\C)c2cc3ccc(C)cc3oc2=O)[C@H](OC(C)=O)[C@@H](OC(C)=O)[C@@H]1OC(C)=O
- MIC (Staphylococcus aureus): 1.56 µM (≈ 0.945 µg/mL)
- MIC (Bacillus subtilis): 100 µM (≈ 60.6 µg/mL)
- MIC (Escherichia coli): 25 µM (≈ 15.1 µg/mL)
- MIC (Pseudomonas aeruginosa): 25 µM (≈ 15.1 µg/mL)
- MIC (Klebsiella pneumoniae): 25 µM (≈ 15.1 µg/mL)
- MIC (Aspergillus niger): 25 µM (≈ 15.1 µg/mL)
- MIC (Aspergillus flavus): > 100 µM
- MIC (Candida albicans): 3.12 µM (≈ 1.89 µg/mL)
- MIC (Saccharomyces cerevisiae): > 100 µM

Compound: CC(=O)OC[C@H]1O[C@@H](NC(=S)N/N=C(\C)c2c(C)c3ccccc3oc2=O)[C@H](OC(C)=O)[C@@H](OC(C)=O)[C@@H]1OC(C)=O
- MIC (Staphylococcus aureus): 25 µM (≈ 15.1 µg/mL)
- MIC (Bacillus subtilis): > 100 µM
- MIC [1]: 100 µM (≈ 60.6 µg/mL)
- MIC (Klebsiella pneumoniae): 50 µM (≈ 30.3 µg/mL)
- MIC (Aspergillus niger): 12.5 µM (≈ 7.57 µg/mL)
- MIC (Aspergillus flavus): 25 µM (≈ 15.1 µg/mL)
- MIC (Candida albicans): 12.5 µM (≈ 7.57 µg/mL)
- MIC (Saccharomyces cerevisiae): 12.5 µM (≈ 7.57 µg/mL)

Compound: C/C(=N\NC(=S)NN[C@@H]1O[C@H](CO)[C@@H](O)[C@H](O)[C@H]1O)c1ccccn1
- IC50 (PC-3): 2800 nM
- IC50 (MDA-MB-231): 1600 nM

Compound: CC(=O)OC[C@H]1O[C@@H](NC(=S)N/N=C(\C)c2cc3cccc([N+](=O)[O-])c3oc2=O)[C@H](OC(C)=O)[C@@H](OC(C)=O)[C@@H]1OC(C)=O
- MIC (Staphylococcus aureus): 0.78 µM (≈ 0.497 µg/mL)
- MIC (Bacillus subtilis): 12.5 µM (≈ 7.96 µg/mL)
- MIC [1]: 12.5 µM (≈ 7.96 µg/mL)
- MIC (Escherichia coli): 25 µM (≈ 15.9 µg/mL)
- MIC (Klebsiella pneumoniae): 12.5 µM (≈ 7.96 µg/mL)
- MIC (Salmonella typhimurium): > 100 µM
- MIC (Aspergillus niger): 3.12 µM (≈ 1.99 µg/mL)
- MIC (Aspergillus flavus): 12.5 µM (≈ 7.96 µg/mL)
- MIC (Candida albicans): 0.78 µM (≈ 0.497 µg/mL)
- MIC (Saccharomyces cerevisiae): 12.5 µM (≈ 7.96 µg/mL)

Compound: CC(=O)OC[C@H]1O[C@@H](NC(=S)N/N=C(\C)c2cc3cc(Cl)ccc3oc2=O)[C@H](OC(C)=O)[C@@H](OC(C)=O)[C@@H]1OC(C)=O
- MIC (Staphylococcus aureus): > 100 µM
- MIC [1]: > 100 µM
- MIC (Escherichia coli): 25 µM (≈ 15.7 µg/mL)
- MIC (Pseudomonas aeruginosa): 3.12 µM (≈ 1.96 µg/mL)
- MIC (Salmonella typhimurium): 50 µM (≈ 31.3 µg/mL)
- MIC (Aspergillus niger): 100 µM (≈ 62.6 µg/mL)
- MIC (Aspergillus flavus): 12.5 µM (≈ 7.83 µg/mL)
- MIC (Candida albicans): 1.56 µM (≈ 0.977 µg/mL)
- MIC (Saccharomyces cerevisiae): 50 µM (≈ 31.3 µg/mL)

Compound: CC(=O)OC[C@H]1O[C@@H](NC(=S)N/N=C(\C)c2cc3cc(Br)ccc3oc2=O)[C@H](OC(C)=O)[C@@H](OC(C)=O)[C@@H]1OC(C)=O
- MIC (Staphylococcus aureus): 100 µM (≈ 67 µg/mL)
- MIC [1]: 3.12 µM (≈ 2.1 µg/mL)
- MIC (Escherichia coli): 3.12 µM (≈ 2.1 µg/mL)
- MIC (Pseudomonas aeruginosa): 3.12 µM (≈ 2.1 µg/mL)
- MIC (Klebsiella pneumoniae): 25 µM (≈ 16.8 µg/mL)
- MIC (Salmonella typhimurium): 25 µM (≈ 16.8 µg/mL)
- MIC (Aspergillus flavus): 6.25 µM (≈ 4.19 µg/mL)
- MIC (Candida albicans): 50 µM (≈ 33.5 µg/mL)
- MIC (Saccharomyces cerevisiae): 25 µM (≈ 16.8 µg/mL)

Compound: CC(=O)OC[C@H]1O[C@@H](NC(=S)N/N=C(\C)c2cc3ccccc3oc2=O)[C@H](OC(C)=O)[C@@H](OC(C)=O)[C@@H]1OC(C)=O
- MIC (Bacillus subtilis): > 100 µM
- MIC [1]: 12.5 µM (≈ 7.39 µg/mL)
- MIC (Escherichia coli): 50 µM (≈ 29.6 µg/mL)
- MIC (Pseudomonas aeruginosa): 50 µM (≈ 29.6 µg/mL)
- MIC (Klebsiella pneumoniae): 100 µM (≈ 59.2 µg/mL)
- MIC (Salmonella typhimurium): 100 µM (≈ 59.2 µg/mL)
- MIC (Aspergillus niger): > 100 µM
- MIC (Aspergillus flavus): 25 µM (≈ 14.8 µg/mL)
- MIC (Candida albicans): 100 µM (≈ 59.2 µg/mL)
- MIC (Saccharomyces cerevisiae): 50 µM (≈ 29.6 µg/mL)

Compound: CC(=O)OC[C@H]1O[C@@H](NC(=S)N/N=C(\C)c2cc3cc([N+](=O)[O-])ccc3oc2=O)[C@H](OC(C)=O)[C@@H](OC(C)=O)[C@@H]1OC(C)=O
- MIC (Staphylococcus aureus): 12.5 µM (≈ 7.96 µg/mL)
- MIC (Bacillus subtilis): > 100 µM
- MIC [1]: 12.5 µM (≈ 7.96 µg/mL)
- MIC (Escherichia coli): 3.12 µM (≈ 1.99 µg/mL)
- MIC (Pseudomonas aeruginosa): 1.56 µM (≈ 0.993 µg/mL)
- MIC (Klebsiella pneumoniae): 50 µM (≈ 31.8 µg/mL)
- MIC (Salmonella typhimurium): 100 µM (≈ 63.7 µg/mL)
- MIC (Aspergillus niger): 12.5 µM (≈ 7.96 µg/mL)
- MIC (Aspergillus flavus): 100 µM (≈ 63.7 µg/mL)
- MIC (Candida albicans): 25 µM (≈ 15.9 µg/mL)
- MIC (Saccharomyces cerevisiae): 25 µM (≈ 15.9 µg/mL)

Compound: NC(=S)N/N=C/c1ccc(OC(=O)CC2SC(=O)NC2=O)cc1 (centres undefined)
- MIC [2]: 0.031 µg/mL (≈ 0.088 µM)
- MBC [3]: 0.063 µg/mL (≈ 0.179 µM)

Compound: COc1cc(C/C=N/NC(N)=S)ccc1O[C@@H]1O[C@H](COC(C)=O)[C@H](OC(C)=O)[C@H](OC(C)=O)[C@H]1OC(C)=O
- IC50 (Rhodesain): 1200 nM

Compound: O=C(O)c1cn(C2CC2)c2cc(N3CCNCC3)c(F)cc2c1=O [CIPROFLOXACIN]
- MIC (Staphylococcus aureus): 3.12 µM (≈ 1.04 µg/mL)
- MIC (Bacillus subtilis): 3.12 µM (≈ 1.04 µg/mL)
- MIC [1]: 3.12 µM (≈ 1.04 µg/mL)
- MIC (Escherichia coli): 1.56 µM (≈ 0.517 µg/mL)
- MIC (Pseudomonas aeruginosa): 1.56 µM (≈ 0.517 µg/mL)
- MIC (Klebsiella pneumoniae): 1.56 µM (≈ 0.517 µg/mL)
- MIC (Salmonella typhimurium): 1.56 µM (≈ 0.517 µg/mL)

Compound: OC(Cn1cncn1)(Cn1cncn1)c1ccc(F)cc1F [FLUCONAZOLE]
- MIC (Aspergillus niger): 1.56 µM (≈ 0.478 µg/mL)
- MIC (Aspergillus flavus): 0.78 µM (≈ 0.239 µg/mL)
- MIC (Candida albicans): 0.78 µM (≈ 0.239 µg/mL)
- MIC (Saccharomyces cerevisiae): 0.78 µM (≈ 0.239 µg/mL)

Compound: O=c1[nH]cc(F)c(=O)[nH]1 [FLUOROURACIL]
- IC50 (PC-3): 2880 nM
- IC50 (MDA-MB-231): 4750 nM

Compound: Clc1ccc(COC(Cn2ccnc2)c2ccc(Cl)cc2Cl)c(Cl)c1 (centres undefined) [MICONAZOLE]
- MIC (Aspergillus niger): 1.56 µM (≈ 0.649 µg/mL)
- MIC (Aspergillus flavus): 1.56 µM (≈ 0.649 µg/mL)
- MIC (Candida albicans): 3.12 µM (≈ 1.3 µg/mL)
- MIC (Saccharomyces cerevisiae): 3.12 µM (≈ 1.3 µg/mL)

Compound: CN[C@H](CC(C)C)C(=O)N[C@H]1C(=O)N[C@@H](CC(N)=O)C(=O)N[C@H]2C(=O)N[C@H]3C(=O)N[C@H](C(=O)N[C@H](C(=O)O)c4cc(O)cc(O)c4-c4cc3ccc4O)[C@H](O)c3ccc(c(Cl)c3)Oc3cc2cc(c3O[C@@H]2O[C@H](CO)[C@@H](O)[C@H](O)[C@H]2O[C@H]2C[C@](C)(N)[C@H](O)[C@H](C)O2)Oc2ccc(cc2Cl)[C@H]1O [VANCOMYCIN]
- MIC (Staphylococcus aureus): 3.12 µM (≈ 4.53 µg/mL)
- MIC (Bacillus subtilis): 1.56 µM (≈ 2.26 µg/mL)
